Target: Recombinant KAT6A/MOZ (488-778) protein (Homo sapiens (Human), UniProt Q92794)
Assay: KAT6A AlphaLISA Inhibition Screening Assay
Type: biochemical
Details: for inhibition at 1 µM: read-out: Average Kat6A % inhibition @ 1 μM; for inhibition at 1 µM / Average Kat6A % inhibition @ 1 μM: 1 μM test compound; for inhibition at 10 µM: read-out: Average Kat6A % inhibition @ 10 μM; for inhibition at 10 µM / Average Kat6A % inhibition @ 10 μM: 10 μM test compound
Protocol: The Kat6a inhibitory activity of test compounds was determined using an Alpha Screen-based detection method. The assay reactions were conducted in a volume of 10 μL in Alpha Plate, White 384 well plate (cat #6008280, Perkin Elmer). The enzymatic reactions were performed in assay buffer pH 8.0 (50 mM Tris-HCl, 0.1 mM EDTA, 0.01% Tween-20, 1 mM Dithiothreitol, 0.1% BSA (fatty acid free) and 330 nM TSA (Trichostatin A)). 10 μL reaction volume consisting of 25 nM of Recombinant KAT6A/MOZ (488-778) protein (Active motif, Catalog #81223), 400 nM Acetyl coenzyme A (Catalog #A2056, Sigma), 200 nM of Histone H3 peptide [(amino acids 1-21), biotin-labeled (BPS Biosciences, Catalog #52011)]. Test compounds were screened at different doses starting with 10 μM, 3 fold dilution and 10 point Dose response curve. Enzyme and compounds solution were pre-incubated in assay plate for 60 or 10 min at room temperature then substrate and Acetyl coenzyme A solution were added to the plate. After addition, the plate was sealed with adhesive seals and incubated for 120 minutes at room temperature.
After 120 minutes of incubation, […] of AlphaLISA anti-acetyl-Lysine acceptor beads (Perkin Elmer, Catalog #AL143C) were added to the plate and it was incubated for 60 minutes at room temperature. Then […] of Alpha Streptavidin donor beads (Perkin Elmer, Catalog #6760002S) were added to the plate which was further incubated for 60 minutes at room temperature. After incubation, the alpha signal was recorded by using Perkin Elmer Envision multi-mode reader. Percent inhibition of enzyme activity by test compounds were determined relative to vehicle control.

Chain of Recombinant KAT6A/MOZ (488-778) protein (Q92794 488-778): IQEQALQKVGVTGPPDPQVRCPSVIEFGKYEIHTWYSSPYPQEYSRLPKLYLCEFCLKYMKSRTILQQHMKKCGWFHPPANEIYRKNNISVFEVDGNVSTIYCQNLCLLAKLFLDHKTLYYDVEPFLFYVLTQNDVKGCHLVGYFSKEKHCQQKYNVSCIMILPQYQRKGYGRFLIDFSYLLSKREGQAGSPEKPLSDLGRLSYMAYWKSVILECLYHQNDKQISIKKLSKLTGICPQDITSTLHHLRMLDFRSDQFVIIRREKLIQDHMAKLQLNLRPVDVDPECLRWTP

SMILES | inhibition at 1 µM | inhibition at 10 µM | Average Kat6A % inhibition @ 1 μM | Average Kat6A % inhibition @ 10 μM
C=C(F)C(=O)NCc1cnn(Cc2cc(OC)c3c(NS(=O)(=O)c4cc(C)c(C)cc4OC)noc3c2)c1 [Syn. Ex. 28, 2-fluoro-N-((1-((4-methoxy-3-((2-methoxy-4,5-dimethylphenyl)sulfonamido)benzo[d]isoxazol-6-yl)methyl)-1H-pyrazol-4-yl)methyl)acrylamide] | 100% | 100% | – | –
COC(=O)NCc1cnn(Cc2cc3onc(NS(=O)(=O)c4cc5c(cc4OC)CCC5)c3cc2OC)c1 [Syn. Ex. 147, methyl ((1-((5-methoxy-3-((6-methoxy-2,3-dihydro-1H-indene)-5-sulfonamido)benzo[d]isoxazol-6-yl)methyl)-1H-pyrazol-4-yl)methyl)carbamate] | – | – | 101% | 101%
C=C(F)C(=O)NCc1cnn(Cc2cc(OC)c3c(NS(=O)(=O)c4ccccc4OC)noc3c2)c1 [Syn. Ex. 40, 2-fluoro-N-((1-((4-methoxy-3-((2-methoxyphenyl)sulfonamido)benzo[d]isoxazol-6-yl)methyl)-1H-pyrazol-4-yl)methyl)acrylamide] | 99% | 99% | – | –
COc1cc(C)c(Cl)cc1S(=O)(=O)Nc1noc2cc(Cn3cc(CNS(C)(=O)=O)cn3)cc(OC)c12 [Syn. Ex. 22, 5-chloro-2-methoxy-N-(4-methoxy-6-((4-(methylsulfonamidomethyl)-1H-pyrazol-1-yl)methyl)benzo[d]isoxazol-3-yl)-4-methylbenzenesulfonamide] | 100% | 100% | – | –
C=C(F)C(=O)NCc1cnn(Cc2cc(OC)c3c(NS(=O)(=O)c4cc(CC)ccc4OCC(=O)N4CCOCC4)noc3c2)c1 [Syn. Ex. 68, N-((1-((3-((5-ethyl-2-(2-morpholino-2-oxoethoxy)phenyl)sulfonamido)-4-methoxybenzo[d]isoxazol-6-yl)methyl)-1H-pyrazol-4-yl)methyl)-2-fluoroacrylamide] | 96% | 100% | – | –
C=C(F)C(=O)NCc1cnn(Cc2cc(OC)c3c(NS(=O)(=O)c4c(OC)ccnc4OC)noc3c2)c1 [Syn. Ex. 87, N-((1-((3-((2,4-dimethoxypyridine)-3-sulfonamido)-4-methoxybenzo[d]isoxazol-6-yl)methyl)-1H-pyrazol-4-yl)methyl)-2-fluoroacrylamide] | – | – | 95% | 100%
C=C(F)C(=O)NCc1cnc(Oc2cc(OC)c3c(NS(=O)(=O)c4cc5c(cc4OC)CCC5)noc3c2)s1 [Syn. Ex. 143, 2-fluoro-N-((2-((4-methoxy-3-((6-methoxy-2,3-dihydro-1H-indene)-5-sulfonamido)benzo[d]isoxazol-6-yl)oxy)thiazol-5-yl)methyl)acrylamide] | – | – | 101% | 99%
COC(=O)NCc1cnn(Cc2cc(OC)c3c(NS(=O)(=O)c4cc(C)cc5cccnc45)noc3c2)c1 [Syn. Ex. 130, methyl ((1-((4-methoxy-3-((6-methylquinoline)-8-sulfonamido)benzo[d]isoxazol-6-yl)methyl)-1H-pyrazol-4-yl)methyl)carbamate] | – | – | 100% | 102%
COC(=O)NCc1cnn(Cc2cc3onc(NS(=O)(=O)c4ccccc4OC)c3c3c2CCO3)c1 [Syn. Ex. 134, methyl ((1-((8-((2-methoxyphenyl)sulfonamido)-2,3-dihydrobenzofuro[7,6-d]isoxazol-4-yl)methyl)-1H-pyrazol-4-yl)methyl)carbamate] | 97% | 101% | – | –
COC(=O)NCc1cnn(Cc2cc3onc(NS(=O)(=O)c4ccccc4OC)c3c3c2CCCO3)c1 [Syn. Ex. 133, methyl ((1-((9-((2-methoxyphenyl)sulfonamido)-3,4-dihydro-2H-chromeno[8,7-d]isoxazol-5-yl)methyl)-1H-pyrazol-4-yl)methyl)carbamate] | 100% | 103% | – | –
C=C(F)C(=O)NCc1cnn(Cc2cc(OC)c3c(NS(=O)(=O)c4cc(CC)ccc4OCc4nc[nH]n4)noc3c2)c1 [Syn. Ex. 80, N-((1-((3-((2-((1H-1,2,4-triazol-3-yl)methoxy)-5-ethylphenyl)sulfonamido)-4-methoxybenzo[d]isoxazol-6-yl)methyl)-1H-pyrazol-4-yl)methyl)-2-fluoroacrylamide] | 100% | 100% | – | –
C#CC(=O)NCc1cnn(Cc2cc(OC)c3c(NS(=O)(=O)c4c(OC)ccnc4OC)noc3c2)c1 [Syn. Ex. 85, N-((1-((3-((2,4-dimethoxypyridine)-3-sulfonamido)-4-methoxybenzo[d]isoxazol-6-yl)methyl)-1H-pyrazol-4-yl)methyl)propiolamide] | – | – | 91% | 95%

Other lines, results leading:

inhibition at 1 µM | inhibition at 10 µM | Average Kat6A % inhibition @ 1 μM | Average Kat6A % inhibition @ 10 μM | SMILES
100% | 100% | – | – | CCc1ccc(OC)c(S(=O)(=O)Nc2noc3cc(Cn4cc(CNC(=O)[C@@H](C)F)cn4)cc(OC)c23)c1 (single isomer, unassigned) [Syn. Ex. 47a]
96% | 97% | – | – | COC(=O)NCc1cnn(Cc2cc(OC)c3c(NS(=O)(=O)c4cc(C(F)F)ccc4OC)noc3c2)c1 [Syn. Ex. 135, methyl ((1-((3-((5-(difluoromethyl)-2-methoxyphenyl)sulfonamido)-4-methoxybenzo[d]isoxazol-6-yl)methyl)-1H-pyrazol-4-yl)methyl)carbamate]
97% | 99% | – | – | C#CC(=O)NCc1cnc(Oc2cc(OC)c3c(NS(=O)(=O)c4cc(CC)ccc4OC)noc3c2)s1 [Syn. Ex. 103, N-((2-((3-((5-ethyl-2-methoxyphenyl)sulfonamido)-4-methoxybenzo[d]isoxazol-6-yl)oxy)thiazol-5-yl)methyl)propiolamide]
99% | 99% | – | – | CCOc1cc(C)ccc1S(=O)(=O)Nc1noc2cc(Cn3cc(CNC(=O)OC)cn3)cc(OC)c12 [Syn. Ex. 136, methyl ((1-((3-((2-ethoxy-4-methylphenyl)sulfonamido)-4-methoxybenzo[d]isoxazol-6-yl)methyl)-1H-pyrazol-4-yl)methyl)carbamate]
100% | 100% | – | – | CCc1ccc(OC)c(S(=O)(=O)Nc2noc3cc(Cn4cc(CNC(=O)OC)cn4)c4c(c23)OCCC4)c1 [Syn. Ex. 97, methyl ((1-((9-((5-ethyl-2-methoxyphenyl)sulfonamido)-3,4-dihydro-2H-chromeno[8,7-d]isoxazol-5-yl)methyl)-1H-pyrazol-4-yl)methyl)carbamate]
96% | 100% | – | – | CCc1ccc(OC)c(S(=O)(=O)Nc2noc3cc(Cn4cc(CNC(=O)OCCNC(C)=O)cn4)cc(OC)c23)c1 [Syn. Ex. 48, 2-acetamidoethyl ((1-((3-((5-ethyl-2-methoxyphenyl)sulfonamido)-4-methoxybenzo[d]isoxazol-6-yl)methyl)-1H-pyrazol-4-yl)methyl)carbamate]
100% | 100% | – | – | CCc1ccc(OCc2ccnc(OC)c2)c(S(=O)(=O)Nc2noc3cc(Cn4cc(CNC(=O)OC)cn4)cc(OC)c23)c1 [Syn. Ex. 95, methyl ((1-((3-((5-ethyl-2-((2-methoxypyridin-4-yl)methoxy)phenyl)sulfonamido)-4-methoxybenzo[d]isoxazol-6-yl)methyl)-1H-pyrazol-4-yl)methyl)carbamate]
86% | 100% | – | – | CCc1ccc(OC)c(S(=O)(=O)Nc2noc3cc(Cn4cc(CNC(=O)OCCO)cn4)cc(OC)c23)c1 [Syn. Ex. 34, 2-hydroxyethyl ((1-((3-((5-ethyl-2-methoxyphenyl)sulfonamido)-4-methoxybenzo[d]isoxazol-6-yl)methyl)-1H-pyrazol-4-yl)methyl)carbamate]
60% | 100% | – | – | C#CC(=O)NCc1ccc(Oc2cc(OC)c3c(NS(=O)(=O)c4cc(CC)ccc4OC)noc3c2)nc1 [Syn. Ex. 61, N-((6-((3-((5-ethyl-2-methoxyphenyl)sulfonamido)-4-methoxybenzo[d]isoxazol-6-yl)oxy)pyridin-3-yl)methyl)propiolamide]
70% | 100% | – | – | CC#CC(=O)NCc1ccc(Oc2cc(OC)c3c(NS(=O)(=O)c4cc(CC)ccc4OC)noc3c2)nc1 [Syn. Ex. 57, N-((6-((3-((5-ethyl-2-methoxyphenyl)sulfonamido)-4-methoxybenzo[d]isoxazol-6-yl)oxy)pyridin-3-yl)methyl)but-2-ynamide]
100% | 100% | – | – | C=C(F)C(=O)NCc1cnn(Cc2cc(OC)c3c(NS(=O)(=O)c4cc(CC)ccc4OCc4ccnc(OC)c4)noc3c2)c1 [Syn. Ex. 94, N-((1-((3-((5-ethyl-2-((2-methoxypyridin-4-yl)methoxy)phenyl)sulfonamido)-4-methoxybenzo[d]isoxazol-6-yl)methyl)-1H-pyrazol-4-yl)methyl)-2-fluoroacrylamide]

From US20250122182A1 (Isosterix, Inc., priority 2023, published 2025)
